Assay results taken from ChEMBL document CHEMBL4725392, “Orally Bioavailable Small-Molecule CD73 Inhibitor (OP-5244) Reverses Immunosuppression through Blockade of Adenosine Production” (J Med Chem, 2020).
Activity calls are given as the source filed them. The calls are words filed in the database; no cut-off is given here.

Assays:
[1] = target: T1, 5'-nucleotidase (Homo sapiens, UniProt P21589); assay: Inhibition of CD73 in human CD8+ T-cells assessed as reduction in AMP-induced ADO expression preincubated for 15 mins followed by AMP addition and measured after 1 hr by LC-MS/MS analysis; format: tissue-based, CD8-positive T cell
[2] = Cmax in rat at 10 mg/kg, po; format: ADME, organism-based; design: route oral, dose 10 mg/kg; settings: in vivo
[3] = target: T1, 5'-nucleotidase; assay: Inhibition of human C-terminal His6-tagged CD73 expressed in CHO cells preincubated for 15 mins followed by AMP addition and measured after 10 mins by malachite green reagent based assay; format: cell-based
[4] = target: T1, 5'-nucleotidase; assay: Inhibition of CD73 in human NCI-H1568 cells assessed as reduction in AMP-induced ADO expression preincubated for 15 mins followed by AMP addition and measured after 1 hr by LC-MS/MS analysis; format: cell-based
[5] = target: T2, 5'-nucleotidase (Mus musculus, UniProt Q61503); assay: Inhibition of CD73 in mouse EMT6 cells assessed as reduction in AMP-induced ADO expression preincubated for 15 mins followed by AMP addition and measured after 1 hr by LC-MS/MS analysis; format: cell-based
T2 sequence (Q61503 whole entry): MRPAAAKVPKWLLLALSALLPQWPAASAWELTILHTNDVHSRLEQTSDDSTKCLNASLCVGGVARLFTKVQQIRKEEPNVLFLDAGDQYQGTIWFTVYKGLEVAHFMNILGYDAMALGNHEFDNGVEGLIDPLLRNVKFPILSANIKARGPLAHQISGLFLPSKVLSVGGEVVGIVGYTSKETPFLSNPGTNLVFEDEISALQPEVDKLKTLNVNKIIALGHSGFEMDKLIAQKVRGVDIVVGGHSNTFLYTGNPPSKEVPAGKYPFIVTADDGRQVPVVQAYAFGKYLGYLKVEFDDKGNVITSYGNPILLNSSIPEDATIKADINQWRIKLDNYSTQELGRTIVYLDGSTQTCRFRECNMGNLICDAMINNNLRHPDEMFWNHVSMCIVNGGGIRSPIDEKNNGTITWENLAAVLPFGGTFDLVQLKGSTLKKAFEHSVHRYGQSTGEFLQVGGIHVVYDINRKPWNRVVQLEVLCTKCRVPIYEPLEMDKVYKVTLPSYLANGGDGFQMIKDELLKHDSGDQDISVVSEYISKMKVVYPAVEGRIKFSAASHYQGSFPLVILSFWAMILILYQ

[6] = AUC infinity in mouse at 200 mg/kg, po; format: ADME, organism-based; design: route oral, time infinity, dose 200 mg/kg; settings: in vivo
[7] = Cmax in mouse at 200 mg/kg, po; format: ADME, organism-based; design: route oral, dose 200 mg/kg; settings: in vivo
[8] = Terminal half life in mouse at 200 mg/kg, po; format: ADME, organism-based; settings: in vivo, read-out: beta t1/2 (converted)
[9] = Clearance in rat at 0.2 mg/kg, iv; format: ADME, organism-based; settings: in vivo
[10] = Clearance in dog at 0.2 mg/kg, iv; format: ADME, organism-based, Canis lupus familiaris; settings: in vivo
[11] = Clearance in cynomolgus monkey at 0.2 mg/kg, iv; format: ADME, organism-based, Macaca fascicularis; settings: in vivo
[12] = AUC in rat at 0.2 mg/kg, iv; format: ADME, organism-based; design: dose 0.2 mg/kg; settings: in vivo
[13] = AUC in dog at 0.2 mg/kg, iv; format: ADME, organism-based, Canis lupus familiaris; design: dose 0.2 mg/kg; settings: in vivo
[14] = AUC in cynomolgus monkey at 0.2 mg/kg, iv; format: ADME, organism-based, Macaca fascicularis; design: dose 0.2 mg/kg; settings: in vivo
[15] = Volume of distribution at steady state in rat at 0.2 mg/kg, iv; format: ADME, organism-based; settings: in vivo, read-out: Vdss
[16] = Volume of distribution at steady state in dog at 0.2 mg/kg, iv; format: ADME, organism-based, Canis lupus familiaris; settings: in vivo, read-out: Vdss
[17] = Volume of distribution at steady state in cynomolgus monkey at 0.2 mg/kg, iv; format: ADME, organism-based, Macaca fascicularis; settings: in vivo, read-out: Vdss
[18] = Terminal half life in rat at 0.2 mg/kg, iv; format: ADME, organism-based; settings: in vivo, read-out: beta t1/2 (converted)
[19] = Terminal half life in dog at 0.2 mg/kg, iv; format: ADME, organism-based, Canis lupus familiaris; settings: in vivo, read-out: beta t1/2 (converted)
[20] = Terminal half life in cynomolgus monkey at 0.2 mg/kg, iv; format: ADME, organism-based, Macaca fascicularis; settings: in vivo, read-out: beta t1/2 (converted)
[21] = Cmax in dog at 10 mg/kg, po; format: ADME, organism-based, Canis lupus familiaris; design: route oral, dose 10 mg/kg; settings: in vivo
[22] = Cmax in cynomolgus monkey at 10 mg/kg, po; format: ADME, organism-based, Macaca fascicularis; design: route oral, dose 10 mg/kg; settings: in vivo
[23] = AUC in rat at 10 mg/kg, po; format: ADME, organism-based; design: dose 10 mg/kg; settings: in vivo
[24] = AUC in dog at 10 mg/kg, po; format: ADME, organism-based, Canis lupus familiaris; design: dose 10 mg/kg; settings: in vivo
[25] = AUC in cynomolgus monkey at 10 mg/kg, po; format: ADME, organism-based, Macaca fascicularis; design: dose 10 mg/kg; settings: in vivo
[26] = target: T1, 5'-nucleotidase; assay: Inhibition of CD73 in CD3/CD28/CD2 activated human CD8+ T-cells assessed as increase in T cell proliferation at 4.1 to 1000 nM preincubated for 15 mins followed by AMP addition and measured after 96 hr by flow cytometric analysis; format: tissue-based; settings: CD8-positive T cell, dose nM 4.1-1000, time 15.0 min
[27] = target: T1, 5'-nucleotidase; assay: Inhibition of CD73 in CD3/CD28/CD2 activated human CD8+ T-cells assessed as increase in IFNgamma protein expression at 4.1 to 1000 nM preincubated for 15 mins followed by AMP addition and measured after 96 hr by ELISA; format: tissue-based; settings: CD8-positive T cell, dose nM 4.1-1000, time 15.0 min
[28] = target: T1, 5'-nucleotidase; assay: Inhibition of CD73 in CD3/CD28/CD2 activated human CD8+ T-cells assessed as increase in TNFalpha protein expression at 4.1 to 1000 nM preincubated for 15 mins followed by AMP addition and measured after 96 hr by ELISA; format: tissue-based; settings: CD8-positive T cell, dose nM 4.1-1000, time 15.0 min
[29] = target: T1, 5'-nucleotidase; assay: Inhibition of CD73 in human NCI-H1568 cells assessed as reduction in AMP-induced ADO expression preincubated for 15 mins followed by AMP addition and measured after 1 hr by LC-MS/MS analysis relative to control; format: cell-based
[30] = target: T3, 5'-nucleotidase (Mus musculus) (UniProt Q61503); assay: Inhibition of CD73 in mouse EMT6 cells assessed as reduction in AMP-induced ADO expression preincubated for 15 mins followed by AMP addition and measured after 1 hr by LC-MS/MS analysis relative to control; format: cell-based
T3 sequence (whole entry): T2 sequence (Q61503 whole entry)

[31] = target: T1, 5'-nucleotidase; assay: Inhibition of CD73 in human CD8+ T-cells assessed as reduction in AMP-induced ADO expression preincubated for 15 mins followed by AMP addition and measured after 1 hr by LC-MS/MS analysis relative to control; format: tissue-based; settings: CD8-positive T cell
[32] = target: T3, 5'-nucleotidase (Mus musculus); assay: Inhibition of CD73 in AMP-induced mouse E.G7-OVA cells incubated for 60 mins by Wachstein-Meisel lead phosphate method; format: cell-based; settings: dose nM 10-100, time 60.0 min
[33] = target: T3, 5'-nucleotidase (Mus musculus); assay: Inhibition of CD73 in AMP-induced mouse E.G7-OVA cells at 10 to 100 nM incubated for 60 mins by Wachstein-Meisel lead phosphate method; format: cell-based; settings: dose nM 10-100, time 60.0 min
[34] = system: EMT6; assay: Antitumor activity against mouse EMT6 cells implanted in BALB/c mouse assessed as tumour growth inhibition at 15 mg/kg, sc and measured on day 13; format: functional, organism-based; settings: time 13.0 day
[35] = system: EMT6; assay: Antitumor activity against mouse EMT6 cells implanted in BALB/c mouse assessed as decrease in ADO/AMP ratio at 15 mg/kg, sc and measured on day 13 relative to control; format: functional; design: scale not given: the % may be the effect or the level left; settings: time 13 day
[36] = system: EMT6; assay: Antitumor activity against mouse EMT6 cells implanted in BALB/c mouse assessed as decrease in ADO expression at 15 mg/kg, sc and measured on day 13 relative to control; format: functional; design: scale not given: the % may be the effect or the level left; settings: time 13 day
[37] = system: E.G7-OVA; assay: Antitumour activity against mouse E.G7-OVA cells implanted in C57BL/6 mouse assessed as increase in CD8+/Treg ratio at 150 mg/kg, po BID for 16 days; format: functional, organism-based; settings: time 16.0 day
[38] = system: E.G7-OVA; assay: Antitumour activity against mouse E.G7-OVA cells implanted in C57BL/6 mouse assessed as increase in percentage of CD8+ T cells in total CD45+ leukocytes at 150 mg/kg, po BID for 16 days; format: functional, organism-based; settings: time 16.0 day
[39] = target: Cytochrome P450 3A4 (Homo sapiens, UniProt P08684); assay: Inhibition of CYP3A4 (unknown origin); format: ADME
[40] = target: T4, Cytochrome P450 2C8 (Homo sapiens, UniProt P10632); assay: Inhibition of CYP2C8 (unknown origin); format: ADME
T4 sequence (P10632 whole entry): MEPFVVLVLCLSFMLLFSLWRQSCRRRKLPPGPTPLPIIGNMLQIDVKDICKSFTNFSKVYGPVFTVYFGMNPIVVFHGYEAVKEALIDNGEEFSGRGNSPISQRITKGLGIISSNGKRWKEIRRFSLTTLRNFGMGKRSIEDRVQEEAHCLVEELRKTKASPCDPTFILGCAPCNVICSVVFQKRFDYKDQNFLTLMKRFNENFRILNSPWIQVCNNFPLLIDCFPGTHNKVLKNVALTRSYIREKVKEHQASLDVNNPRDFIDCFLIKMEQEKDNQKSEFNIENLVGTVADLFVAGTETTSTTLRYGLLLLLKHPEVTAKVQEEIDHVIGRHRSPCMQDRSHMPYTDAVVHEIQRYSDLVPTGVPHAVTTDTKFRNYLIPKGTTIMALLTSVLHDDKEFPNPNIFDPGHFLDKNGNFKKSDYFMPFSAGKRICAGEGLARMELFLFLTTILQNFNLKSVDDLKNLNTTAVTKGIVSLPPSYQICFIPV

[41] = target: Cytochrome P450 2C9 (Homo sapiens, UniProt P11712); assay: Inhibition of CYP2C9 (unknown origin); format: ADME
Sequence of Cytochrome P450 2C9 (P11712 whole entry): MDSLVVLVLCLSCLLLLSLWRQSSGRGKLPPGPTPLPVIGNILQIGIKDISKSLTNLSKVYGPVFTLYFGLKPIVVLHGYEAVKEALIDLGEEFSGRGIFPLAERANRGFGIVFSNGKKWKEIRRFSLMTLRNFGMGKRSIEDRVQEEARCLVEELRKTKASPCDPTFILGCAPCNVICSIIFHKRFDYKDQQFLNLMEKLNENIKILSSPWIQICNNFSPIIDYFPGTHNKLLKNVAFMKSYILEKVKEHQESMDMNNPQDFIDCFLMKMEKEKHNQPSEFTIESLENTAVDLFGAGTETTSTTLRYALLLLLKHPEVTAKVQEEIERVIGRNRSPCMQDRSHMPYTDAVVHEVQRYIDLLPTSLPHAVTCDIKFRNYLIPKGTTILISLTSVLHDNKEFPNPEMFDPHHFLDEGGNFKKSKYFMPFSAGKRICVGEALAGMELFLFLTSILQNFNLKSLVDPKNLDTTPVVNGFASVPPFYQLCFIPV

T1 sequence (P21589 whole entry): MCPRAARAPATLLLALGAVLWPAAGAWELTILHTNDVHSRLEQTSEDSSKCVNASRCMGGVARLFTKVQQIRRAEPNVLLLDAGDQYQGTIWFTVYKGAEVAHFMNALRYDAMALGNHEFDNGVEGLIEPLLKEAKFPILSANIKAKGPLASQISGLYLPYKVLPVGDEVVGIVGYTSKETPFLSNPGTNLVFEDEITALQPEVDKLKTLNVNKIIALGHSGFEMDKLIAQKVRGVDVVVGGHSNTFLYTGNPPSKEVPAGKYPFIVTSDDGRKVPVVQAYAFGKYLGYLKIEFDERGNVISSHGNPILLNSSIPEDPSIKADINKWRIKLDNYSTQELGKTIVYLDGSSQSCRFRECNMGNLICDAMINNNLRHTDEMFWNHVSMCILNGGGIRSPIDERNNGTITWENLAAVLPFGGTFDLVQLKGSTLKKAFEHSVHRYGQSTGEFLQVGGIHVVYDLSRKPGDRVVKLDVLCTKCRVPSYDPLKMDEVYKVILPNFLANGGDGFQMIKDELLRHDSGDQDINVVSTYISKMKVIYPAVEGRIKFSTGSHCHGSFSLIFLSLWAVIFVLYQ
Sequence of Cytochrome P450 3A4 (P08684 whole entry): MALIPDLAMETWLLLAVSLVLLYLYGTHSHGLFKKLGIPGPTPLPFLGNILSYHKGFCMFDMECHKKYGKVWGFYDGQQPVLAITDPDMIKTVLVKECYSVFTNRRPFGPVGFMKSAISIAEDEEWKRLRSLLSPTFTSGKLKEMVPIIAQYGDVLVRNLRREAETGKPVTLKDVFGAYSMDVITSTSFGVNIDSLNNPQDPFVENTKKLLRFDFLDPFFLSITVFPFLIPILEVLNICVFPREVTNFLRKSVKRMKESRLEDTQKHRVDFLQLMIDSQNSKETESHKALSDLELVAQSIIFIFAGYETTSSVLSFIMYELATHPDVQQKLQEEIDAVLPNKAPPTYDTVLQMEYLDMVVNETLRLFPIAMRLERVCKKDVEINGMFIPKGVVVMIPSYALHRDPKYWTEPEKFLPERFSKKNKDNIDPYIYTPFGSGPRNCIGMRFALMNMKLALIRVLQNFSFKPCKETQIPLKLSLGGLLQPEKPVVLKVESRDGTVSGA

## COC[C@](CO)(OC[C@H]1O[C@@H](n2ncc3c(NC4CCCC4)nc(Cl)nc32)[C@H](O)[C@@H]1O)P(=O)(O)O
[1]
  EC50: 0.22 nM
[2]
  Cmax: 820 nM
[3]
  IC50: 0.25 nM
[4]
  EC50: 0.79 nM
[5]
  EC50: 14 nM
[6]
  AUC(0-inf): 45.1 µM·h
[7]
  Cmax: 42200 nM
[8]
  half-life: 3.3 h
[9]
  clearance: 3 mL/min/kg
[10]
  clearance: 20.3 mL/min/kg
[11]
  clearance: 0.833 mL/min/kg
[12]
  AUC: 2.11 µM·h
[13]
  AUC: 0.31 µM·h
[14]
  AUC: 7.72 µM·h
[15]
  Vd: 0.22 L/kg
[16]
  Vd: 0.29 L/kg
[17]
  Vd: 0.1 L/kg
[18]
  half-life: 8.5 h
[19]
  half-life: 0.82 h
[20]
  half-life: 4.6 h
[21]
  Cmax: 1250 nM
[22]
  Cmax: 1720 nM
[23]
  AUC: 1.96 µM·h
[24]
  AUC: 1.75 µM·h
[25]
  AUC: 14.2 µM·h
[26]
  inhibition: Active
[27]
  inhibition: Active
[28]
  inhibition: Active
[29]
  inhibition: 100%
[30]
  inhibition: 100%
[31]
  inhibition: 100%
[32]
  inhibition: Dose-dependent effect
[33]
  inhibition: Active
[34]
  Activity: Active
[35]
  Activity: 95%
[36]
  Activity: 100%
[37]
  Activity: Active
[38]
  Activity: Active
[39]
  IC50: > 20000 nM
[40]
  IC50: > 20000 nM
[41]
  IC50: > 20000 nM
